Test results reported in article PMC5640644, “HDX reveals the conformational dynamics of DNA sequence specific VDR co-activator interactions” (Nature Communications, 2017).

T1: WT Flag-h RXRα (human, UniProt P19793 1-462)
T1 construct: human retinoid X receptor alpha (RXRα), full length; also called retinoid X receptor α; source: baculovirus system, purified (Flag, SEC)
T1 sequence (looked up): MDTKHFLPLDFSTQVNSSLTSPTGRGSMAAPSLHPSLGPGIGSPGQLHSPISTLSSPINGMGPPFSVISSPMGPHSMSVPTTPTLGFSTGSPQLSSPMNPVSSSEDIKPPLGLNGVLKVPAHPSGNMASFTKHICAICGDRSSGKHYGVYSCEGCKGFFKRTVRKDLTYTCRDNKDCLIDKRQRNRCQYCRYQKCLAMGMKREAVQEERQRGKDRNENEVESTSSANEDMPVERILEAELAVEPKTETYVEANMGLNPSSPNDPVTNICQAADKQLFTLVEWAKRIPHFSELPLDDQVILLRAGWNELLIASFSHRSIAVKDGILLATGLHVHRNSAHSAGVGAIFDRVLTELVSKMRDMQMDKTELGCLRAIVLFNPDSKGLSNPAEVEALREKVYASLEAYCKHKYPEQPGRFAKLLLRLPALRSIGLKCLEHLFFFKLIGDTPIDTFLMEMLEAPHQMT


Experiments:
TRPV6 = TRPV6 gene activation assay (TRPV6 mRNA, QuantiGene 2.0) in differentiated C2BBe1 cells; format: cell-based, human
Description: C2BBe1 (a clone of CaCO2) cells (CRL-2101, American Type Culture Collection, Manassas, VA) were maintained in DMEM (ATCC 30-2002) supplemented with 10% FBS and insulin-transferrin-selenium-G supplement (Invitrogen, Carlsbad, CA). For TRPV6 expression analysis, cells were plated in 96-well tissue culture treated plates (40,000 per well) in differentiation medium (DMEM containing 5% charcoal-stripped FBS and insulin-transferrin-sodium selenite supplement (ITS)). Cells were allowed to differentiate for 6 days with medium replacement every other day before compound treatment. The medium was removed, and serial dilutions of 1,25D3 or VDRMs in concentrations ranging from 10 μM to 2 nM in differentiation medium were added. After 24 h, the medium was removed, and cell plates were sealed and frozen at −80 °C until assayed. QuantiGene 2.0 Assay Kit (Affymetrix QS0009) was used to quantitate TRPV6 and housekeeping gene GUSB mRNA levels. Following the kit instructions, lysis buffer was added to the frozen cells and incubated briefly at 55 °C […]. Following an overnight incubation the capture plates were washed and the probes amplified following kit instructions. The resulting luminescence signal was detected on an Envision plate reader (Perkin Elmer). TRPV6 signal was normalized using the GUSB signal and the resulting data was fit to a 4-parameter logistic to determine EC50 values.

BGLAP = BGLAP gene activation assay (BGLAP mRNA, QuantiGene 2.0) in MG-63 cells; format: cell-based, human
Description: Human osteosarcoma cells MG-63, (CRL-1427, American Type Culture Collection (ATCC), Manassas, VA), were maintained in EMEM (ATCC 30–2003) + 10% FBS in 5% CO2. For bone gamma-carboxyglutamate protein (BGLAP) expression analysis MG-63 cells, suspended in EMEM (ATCC 30–2003) + 5% charcoal dextran treated FBS, were seeded onto 96-well tissue culture treated plates at 25,000 cells per well. After an overnight incubation the medium was removed and serial dilutions of VDRMs in concentrations ranging from 10 μM to 2 nM in EMEM (ATCC 30–2003) + 5% charcoal dextran treated FBS were added. Following a 24 h incubation the medium was removed and the plates were sealed and stored at −80 °C for later processing. QuantiGene 2.0 Assay Kit (Affymetrix QS0009) was used to quantitate BGLAP and the Housekeeping gene […] mRNA levels. Following the kit instructions, lysis buffer was added to the frozen cells and incubated briefly at 55 °C. A volume of 20 μl of BGLAP probeset (Affymetrix SA-10875-01) or 18 S (Affymetrix SA-10026) in blocking buffer was added to the provided capture plates before adding 80 μl of the cell lysate. The plates were sealed and incubated at 55 °C overnight. Following an overnight incubation the capture plates were washed and the probes amplified following kit instructions. The resulting luminescence signal was detected on an Envision (Perkin Elmer). BGLAP signal was normalized using the 18S signal and the resulting data was fit to a 4-parameter logistics to determine EC50.

WT Flag-h RXRα = molecular target: T1, WT Flag-h RXRα; test: native gel or EMSA; VDR and RXRα mixed at 1:1 molar ratio (about 10 μM); 6% DNA Retardation gel, 0.5X TBE, 150 V, room temperature; ethidium bromide and coomassie staining; conditions: both partners purified

Molecule | Max. Stim., TRPV6 activation (TRPV6; C2BBe1 cells, fold change over DMSO normalized to 1,25D3 = 100%) [%] | EC50 (TRPV6; Homo sapiens, C2BBe1 cells differentiated 6 days, 24 h, average of replicate runs) [nM] | EC50 (BGLAP; Homo sapiens, MG-63, 24 h, read-out: EC50, BGLAP activation) [nM] | Max. Stim., BGLAP activation (BGLAP; MG-63 cells, fold change over DMSO normalized to 1,25D3 = 100%) [%] | binding result (WT Flag-h RXRα)
C=C1/C(=C\C=C2/CCC[C@]3(C)[C@@H]([C@H](C)CCCC(C)(C)O)CC[C@@H]23)C[C@@H](O)C[C@@H]1O [1,25D3, 1α,25-dihydroxyvitamin D3, reference compound] | 100 | 9.81 | 4.1 | 100 | –
Full-length WT His-hVDR (Δ (151–190)) (receptor, human, UniProt P11473 1-427, looked up, human vitamin D receptor (VDR), full length with residues 151-190 deleted; also called vitamin D receptor; source: baculovirus system, purified (Ni-NTA, SEC)) MEAMAASTSLPDPGDFDRNVPRICGVCGDRATGFHFNAMTCEGCKGFFRRSMKRKALFTCPFNGDCRITKDNRRHCQACRLKRCVDIGMMKEFILTDEEVQRKREMILKRKEEEALKDSLRPKLSEEQQRIIAILLDAHHKTYDPTYSDFITSSDMMDSSSFSNLDLSEEDSDDPSVTLELSQLSMLPHLADLVSYSIQKVIGFAKMIPGFRDLTSEDQIVLLKSSAIEVIMLRSNESFTMDDMSWTCGNQDYKYRVSDVTKAGHSLELIEPLIKFQVGLKKLNLHEEEHVLLMAICIVSPDRPGVQDAALIEAIQDRLSNTLQTYIRCRHPPPGSHLLYAKMIQKLADLRSLNEEHSKQYRCLSFQPECSMKLTPLVLEVFGNEIS | – | – | – | – | binds
